# Experiments:
# Format in all cases: cell-based
# S. aureus = assay: Full AET Challenge Test; conditions: Staphylococcus aureus; summary of Examples 1 and 2
# M. luteus = assay: Full AET Challenge Test; conditions: Micrococcus Luteus; summary of Examples 1 and 2
# P. aeruginosa = assay: Full AET Challenge Test; conditions: Pseudomonas aeruginosa; summary of Examples 1 and 2
# C. albicans = assay: Full AET Challenge Test; conditions: Candida albicans; summary of Examples 1 and 2
# A. brasiliensis = assay: Full AET Challenge Test; conditions: Aspergillus brasiliensis; summary of Examples 1 and 2
# S. haemolyticus = assay: Challenge test (Example 1); conditions: Staphylococcus haemolyticus; summary of Examples 1 and 2
# E. coli = assay: Full AET Challenge Test; conditions: Escherichia coli; summary of Examples 1 and 2
compound,measurement,setting,value
"CN[C@]1(c2ccccc2Cl)CCCCC1=O.Cl [S-ketamine hydrochloride, (S)-2-(2-chlorophenyl)-2-(methylamino)cyclohexanone hydrochloride]",antimicrobial properties (summary in words),S. aureus,strong antimicrobial properties
same,antimicrobial properties (summary in words),M. luteus,strong antimicrobial properties
same,antimicrobial properties (summary in words),P. aeruginosa,strong antimicrobial properties
same,antimicrobial properties (summary in words),C. albicans,strong antimicrobial properties
same,antimicrobial properties (summary in words),A. brasiliensis,some inhibitory activity
same,antimicrobial properties (summary in words),S. haemolyticus,strong antimicrobial properties
same,antimicrobial properties (summary in words),E. coli,strong antimicrobial properties
